Earlier results in patent US20250195566A1, “ORAL PHARMACEUTICAL COMPOSITION FOR PREVENTING AND/OR TREATING DISEASES OF THE SOFT AND HARD TISSUES SURROUNDING THE TOOTH IN THE ORAL CAVITY” (priority 2021, published 2025).

Key:
[1] = system: 52 bacteria isolated from subgingival plaque; settings: bacteria isolated from patients with periodontitis
[2] = system: supragingival bacterial plaque and gingival inflammation; settings: clinical results

N=C(NCCCCCCNC(=N)NC(=N)Nc1ccc(Cl)cc1)NC(=N)Nc1ccc(Cl)cc1 [chlorhexidine, Chlorhexidine]
concentration at which all bacteria were inhibited [1]: 250 mg/mL
reduction of gingival inflammation [2]: 45%
reduction of supragingival bacterial plaque [2]: 55%
